Patent US20260248783A1 (ASCLETIS BIOSCIENCE CO., LTD., priority 2021, published 2026)
Counter-ions that a name gives are not always drawn.

What was measured:
[1] = tested on: Hep3B-OS8-hPDL1 and T cells; test: Hep3B-OS8-hPDL1 and T Cells Co-Culture Assay (IFN-γ by ELISA); type: cell-based; conditions: T-cell, Hep3B-OS8-hPDL1 and human CD3+ T cells, 72 hours, read-out: Tumor and T Cell EC50
Protocol: Example 110. Hep3B-OS8-hPDL1 and T Cells Co-Culture Assay
(§1) 1. Hep3B-OS8-hPDL1 cells were cultured in 1640 medium supplemented with 10% fetal bovine serum, 1% penicillin and streptomycin, in which 100 μg/mL G418 and Hygromycin B were also added.
2. Hep3B-OS8-hPDL1 cells were harvested and treated with 10 μg/mL mitomycin C at 37° C. for 1.5 h, and the cells were then washed thoroughly with PBS for four times.
3. Cells were re-suspended with RPMI 1640 medium containing 10% FBS and the cell density was adjusted to 5×10^5 cells/mL.
4. Cells were seeded into 96-well flat bottom plate (2.5×10^4 cells/50 μL/well).
b. CD3+ T cells isolation (30 mL blood)
5. The human blood sample from an individual donor was diluted by the same volume of sterile PBS, for instance add 25 mL sterile PBS into 25 mL fresh whole blood and mix sufficiently by gentle shake.
6. Transferred 15 mL Lymphoprep medium into a new 50 mL centrifuge tube.
7. Added the diluted blood sample as soft as possible onto the surface of the Ficoll medium to make sure there is a clear dividing line between the two liquids, and the volume ratio between Ficoll and diluted blood (30 mL) is 1:2.
8. Moved the tube gently to centrifuge, at 1000×g, 25 min, 20° C., with the acceleration (5) and Min deceleration (0) settings during the centrifugation.
9. Four interfaces in all could be observed after the centrifugation, which are layers of plasma, mononuclear cells, the Ficoll medium and RBCs from top to bottom, and move the tube as gently as possible so as keep the four interfaces separated. Absorbed and transferred the second layer of mononuclear cells into another new sterile centrifuge tube carefully, and absorbed certain volume of plasma instead of the Ficoll medium if inevitable.
10. Added sterile PBS of the three times the volume of PBMCs in the tube with PBMC.
11. Washed the cells twice with 5-10 mL PBS before cell counting with cytometer. Centrifuge at 350×g, 10 min, 20° C. With the acceleration (5) and deceleration (5) settings during the centrifugation.
12. Resuspended the cells with recommended medium and adjust the density of the PBMCs to the final concentration of 5×10^7 cells/mL.
13. Isolated CD3+ T cells with EasySep™ Human T Cell Isolation Kit (STEMCELL Technologies #17951), and the cells were seeded into 96-well flat bottom plate (5×10^4 cells/100 μL/well). c. Compounds solutions preparation
14. Prepared the Compounds dilutions in RPMI 1640 medium with 10% FBS according to the Layout. 15. Added compounds into each well in a volume of 50 μL. {3 compounds (GLC01-258, GLC01-269, GLC01-465) in 7 concentrations (0.03, 0.1, 0.3, 1, 3, 10 and 30 μM) and 6 compounds (GLC01-411, GLC01-292, GLC01-445, GLC01-475, GLC01-470 and GLC01-468) in the same concentration (1 μM)}.
16. Keytruda was included as positive control, the concentration was 5 μg/mL. 17. Incubated for 72 hours at 37° C., 5% CO2.
18. Collected supernatant by centrifugation and measure IFN-γ by ELISA.

PD-1/PD-L1 = target: T1, PD-1/PD-L1 (Homo sapiens, UniProt Q9NZQ7); test: PD-1/PD-L1 Homogeneous Time-Resolved Fluorescence (HTRF) Binding Assay; conditions: PD-1/PD-L1 HTRF activity; 3 nM PD1, 10 nM PD-L1, 25° C.
T1 construct: Recombinant human PD-L1 protein (19-238) with a Histag at the C-terminus; purchased AcroBiosystems PD1-H5229 (PD-L1); PD1-H5257 (PD-1)
Summary of the method: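 Human PD-L1 (19-238, His-tag) 10 nM and PD-1 (25-167, Fc-tag) 3 nM preincubated 40 min with inhibitor in PBS pH 7.4, 0.05% Tween-20, 0.1% BSA, 1% DMSO, 25 °C. Eu-anti-human IgG (1 nM) and anti-His-APC (20 nM) added, 60 min, 665/620 nm ratio; IC50 from percent control activity versus log concentration.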

PDL1 = PDL1 Jurkat-NFAT Reporter Assay; type: cell-based; conditions: Homo sapiens; Hep3B-OS8-hPDL1 with Jurkat-NFAT-PD1 cells, 6 hours, luciferase
Protocol: Example 109. PDL1 Jurkat-NFAT Reporter Assay
Preparation of Hep3B-OS8-hPDL1
as §1
2. Cells were re-suspended with RPMI 1640 medium containing 10% FBS and the cell density was adjusted to 1.25×10^5 cells/mL.
3. Cells were seeded into 96-well flat bottom plate (1.25×10^4 cells/100 μL/well).
b. Compounds solutions preparation
4. Removed the medium from pre-plated Hep3B-OS8-PDL1 cells. Washed once with 200 μL Assay Medium.
5. Prepared the Compounds dilutions in RPMI 1640 medium with 10% FBS according to the Layout.
6. Added compounds into each well in a volume of 50 μL in 9 concentrations ([…])}. Keytruda will be included as positive control at the concentration of 5 μg/mL.
7. Incubated for 20-30 min at 37° C., 5% CO2.
c. Preparation of Jurkat-NFAT-PD1
8. Jurkat-NFAT-PD1 cells were cultured in 1640 medium supplemented with 10% fetal bovine serum, 1% penicillin and streptomycin, in which 1000 μg/mL Hygromycin B and […] puromycin were also added.
9. On the second day of assay, the cells were re-suspended with RPMI 1640 medium containing 10% FBS and the cell density was adjusted to 2.5×10^5 cells/mL.
10. […]

[2] = target: T2, extracellular domains of PD-L1 (Homo sapiens, UniProt Q9NZQ7); test: PD-L1 Dimerization; type: biochemical; conditions: PD-L1-Eu and PD-L1-A2, ratio 665 nm/615 nm
T2 construct: specifically dimerize the extracellular domains of PD-L1
Protocol: Example 108. PD-L1 Dimerization
Compounds were tested in biochemical protein-protein interaction assays to determine if they can specifically dimerize the extracellular domains of PD-L1. • (1) Diluted cpd 1:3 in succession in DMSO for each column for 10 samples • (2) Transferred 0.2 μL cpds solution in each row to 384 assay plate using Echo, each column containing 2 replicates • (3) Added 20 μL prepared mixture include PD-L1-Eu and PD-L1-A2 solution to assay plate, centrifuged at 1000 rpm for 1 min. • (4) Incubated at 25° C. for […]. • (5) Read fluorescence signal on Envision 2104 plate reader. • (6) Read the Ratio (665 nm/615 nm) signal on Envision. • (7) Analyzed the raw data using the equation (V. Data analysis)

T2 sequence (Q9NZQ7 19-238 limits assumed): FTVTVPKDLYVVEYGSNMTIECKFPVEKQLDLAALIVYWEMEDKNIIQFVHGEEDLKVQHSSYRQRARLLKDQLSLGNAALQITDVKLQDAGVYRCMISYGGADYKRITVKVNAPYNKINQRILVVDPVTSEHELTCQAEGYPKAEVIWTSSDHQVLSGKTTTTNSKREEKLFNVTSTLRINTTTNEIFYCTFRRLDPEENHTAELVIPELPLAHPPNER
T1 sequence (Q9NZQ7 19-238): as the sequence (Q9NZQ7 19-238 limits assumed) above

SMILES | EC50 [1] | IC50 (PD-1/PD-L1) | EC50 (PDL1) | EC50 [2]
Cc1cn2cc(-c3cccc(-c4cccc(-c5cc6c(=O)n(CCN7CC[C@H](C(=O)O)C7)c(C)cn6c5)c4Cl)c3Cl)cc2c(=O)n1CCN1CC[C@H](C(=O)O)C1 [Compound 53, (3S,3'S)-1,1′-(((2,2′-dichloro-[1,1′-biphenyl]-3,3′-diyl)bis(3-methyl-1-oxopyrrolo[1,2-a]pyrazine-7,2(1H)-diyl))bis(ethane-2,1-diyl))bis(pyrrolidine-3-carboxylic acid)] | ≥ 100 nM | < 10 nM | – | –
Cn1c(CNC[C@@H]2CCC(=O)N2)cn2cc(-c3cccc(-c4cccc(-c5cc6c(=O)n(C)c(CNC[C@@H]7CCC(=O)N7)cn6c5)c4Cl)c3Cl)cc2c1=O [Compound 74, 7,7′-(2,2′-dichloro-[1,1′-biphenyl]-3,3′-diyl)bis(2-methyl-3-(((((S)-5-oxopyrrolidin-2-yl)methyl)amino)methyl)pyrrolo[1,2-a]pyrazin-1(2H)-one)] | – | 10 to 100 nM | ≥ 500 nM | –
Cc1cn2nc(-c3cccc(-c4cccc(-c5cc6c(=O)n(CCN7CC[C@H](O)[C@H]7C(=O)O)c(C)cn6n5)c4Cl)c3Cl)cc2c(=O)n1CCN1CC[C@H](O)[C@H]1C(=O)O [Compound 89, (2S,2'S,3S,3'S)-1,1′-(((2,2′-dichloro-[1,1′-biphenyl]-3,3′-diyl)bis(6-methyl-4-oxopyrazolo[1,5-a]pyrazine-2,5(4H)-diyl))bis(ethane-2,1-diyl))bis(3-hydroxypyrrolidine-2-carboxylic acid)] | < 50 nM | 10 to 100 nM | – | –
Cc1cn2nc(-c3cccc(-c4cccc(-c5cc6c(=O)n(CCN7CC[C@H](C(=O)O)C7)c(C)cn6n5)c4Cl)c3Cl)cc2c(=O)n1CCN1CC[C@H](C(=O)O)C1 [Compound 47, (3S,3'S)-1,1′-(((2,2′-dichloro-[1,1′-biphenyl]-3,3′-diyl)bis(6-methyl-4-oxopyrazolo[1,5-a]pyrazine-2,5(4H)-diyl))bis(ethane-2,1-diyl))bis(pyrrolidine-3-carboxylic acid)] | ≥ 100 nM | < 10 nM | – | 50 to 100 nM
Cc1cn2nc(-c3cccc(-c4cccc(-c5cc6c(=O)n(C[C@@H]7CCCN7)c(C)cn6n5)c4Cl)c3Cl)cc2c(=O)n1C[C@@H]1CCCN1 [Compound 36, 2,2′-(2,2′-dichloro-[1,1′-biphenyl]-3,3′-diyl)bis(6-methyl-5-(((S)-pyrrolidin-2-yl)methyl)pyrazolo[1,5-a]pyrazin-4(5H)-one) dihydrochloride] | < 50 nM | < 10 nM | – | < 50 nM
Cc1cn2nc(-c3cccc(-c4cccc(-c5cc6c(=O)n(CCNCCO)c(C)cn6n5)c4Cl)c3Cl)cc2c(=O)n1CCNCCO [Compound 52, 2,2′-(2,2′-dichloro-[1,1′-biphenyl]-3,3′-diyl)bis(5-(2-((2-hydroxyethyl)amino)ethyl)-6-methylpyrazolo[1,5-a]pyrazin-4(5H)-one)] | 50 to 100 nM | < 10 nM | – | < 50 nM
Cc1cn2nc(-c3cccc(-c4cccc(-c5cc6c(=O)n(CCNC7(C(=O)O)CC(O)C7)c(C)cn6n5)c4Cl)c3Cl)cc2c(=O)n1CCNC1(C(=O)O)CC(O)C1 (centres unmarked) [Compound 85] | < 50 nM | 10 to 100 nM | – | 50 to 100 nM
Cc1cn2nc(-c3cccc(-c4cccc(-c5cc6c(=O)n(CCN[C@@H](CO)C(=O)O)c(C)cn6n5)c4Cl)c3Cl)cc2c(=O)n1CCN[C@@H](CO)C(=O)O [Compound 57, (2S,2'S)-2,2′-((((2,2′-dichloro-[1,1′-biphenyl]-3,3′-diyl)bis(6-methyl-4-oxopyrazolo[1,5-a]pyrazine-2,5(4H)-diyl))bis(ethane-2,1-diyl))bis(azanediyl))bis(3-hydroxypropanoic acid)] | < 50 nM | < 10 nM | – | 50 to 100 nM
Cn1c(C[C@@H]2CCCN2)nn2cc(-c3cccc(-c4cccc(-c5cc6c(=O)n(C)c(C[C@@H]7CCCN7)nn6c5)c4Cl)c3Cl)cc2c1=O [Compound 76, 6,6′-(2,2′-dichloro-[1,1′-biphenyl]-3,3′-diyl)bis(3-methyl-2-(((S)-pyrrolidin-2-yl)methyl)pyrrolo[2,1-f][1,2,4]triazin-4(3H)-one)] | 50 to 100 nM | 10 to 100 nM | – | < 50 nM
Cc1cn2cc(-c3cccc(-c4cccc(-c5cc6c(=O)n(CCN[C@@H](CO)C(=O)O)c(C)cn6c5)c4Cl)c3Cl)cc2c(=O)n1CCN[C@@H](CO)C(=O)O [Compound 63, (2S,2'S)-2,2′-((((2,2′-dichloro-[1,1′-biphenyl]-3,3′-diyl)bis(3-methyl-1-oxopyrrolo[1,2-a]pyrazine-7,2(1H)-diyl))bis(ethane-2,1-diyl))bis(azanediyl))bis(3-hydroxypropanoic acid)] | ≥ 100 nM | < 10 nM | – | 50 to 100 nM
Cc1cn2cc(-c3cccc(-c4cccc(-c5cc6c(=O)n(CCNC[C@@H]7CCC(=O)N7)c(C)cn6c5)c4Cl)c3Cl)cc2c(=O)n1CCNC[C@@H]1CCC(=O)N1 [Compound 49, 7,7′-(2,2′-dichloro-[1,1′-biphenyl]-3,3′-diyl)bis(3-methyl-2-(2-((((S)-5-oxopyrrolidin-2-yl)methyl)amino)ethyl)pyrrolo[1,2-a]pyrazin-1(2H)-one)] | – | < 10 nM | – | ≥ 100 nM
Cc1cn2cc(-c3cccc(-c4cccc(-c5cc6c(=O)n(CCNCCO)c(C)cn6c5)c4Cl)c3Cl)cc2c(=O)n1CCNCCO [Compound 51, 7,7′-(2,2′-dichloro-[1,1′-biphenyl]-3,3′-diyl)bis(2-(2-((2-hydroxyethyl)amino)ethyl)-3-methylpyrrolo[1,2-a]pyrazin-1(2H)-one)] | 50 to 100 nM | < 10 nM | – | 50 to 100 nM
